Laboratory results from ChEMBL document CHEMBL1933021, “Novel and selective spiroindoline-based inhibitors of Sky kinase” (Bioorg Med Chem Lett, 2012).
pIC50: −log10 of the molar value. ≈ marks a conversion by molar mass, not a printed value.

Key:
[1] = target: RAC-alpha serine/threonine-protein kinase (Homo sapiens, UniProt P31749); assay: Inhibition of AKT1
[2] = target: Mitogen-activated protein kinase 1 (Homo sapiens, UniProt P28482); assay: Inhibition of Erk2
[3] = Permeability across human Caco2 cells; type: ADME, cell-based; conditions: Caco-2, read-out: permeability
[4] = target: Vascular endothelial growth factor receptor 2 (Homo sapiens, UniProt P35968); assay: Inhibition of VEGFR2
[5] = target: Tyrosine-protein kinase ABL1 (Homo sapiens, UniProt P00519); assay: Inhibition of Abl
Sequence of Tyrosine-protein kinase ABL1 (P00519 whole entry): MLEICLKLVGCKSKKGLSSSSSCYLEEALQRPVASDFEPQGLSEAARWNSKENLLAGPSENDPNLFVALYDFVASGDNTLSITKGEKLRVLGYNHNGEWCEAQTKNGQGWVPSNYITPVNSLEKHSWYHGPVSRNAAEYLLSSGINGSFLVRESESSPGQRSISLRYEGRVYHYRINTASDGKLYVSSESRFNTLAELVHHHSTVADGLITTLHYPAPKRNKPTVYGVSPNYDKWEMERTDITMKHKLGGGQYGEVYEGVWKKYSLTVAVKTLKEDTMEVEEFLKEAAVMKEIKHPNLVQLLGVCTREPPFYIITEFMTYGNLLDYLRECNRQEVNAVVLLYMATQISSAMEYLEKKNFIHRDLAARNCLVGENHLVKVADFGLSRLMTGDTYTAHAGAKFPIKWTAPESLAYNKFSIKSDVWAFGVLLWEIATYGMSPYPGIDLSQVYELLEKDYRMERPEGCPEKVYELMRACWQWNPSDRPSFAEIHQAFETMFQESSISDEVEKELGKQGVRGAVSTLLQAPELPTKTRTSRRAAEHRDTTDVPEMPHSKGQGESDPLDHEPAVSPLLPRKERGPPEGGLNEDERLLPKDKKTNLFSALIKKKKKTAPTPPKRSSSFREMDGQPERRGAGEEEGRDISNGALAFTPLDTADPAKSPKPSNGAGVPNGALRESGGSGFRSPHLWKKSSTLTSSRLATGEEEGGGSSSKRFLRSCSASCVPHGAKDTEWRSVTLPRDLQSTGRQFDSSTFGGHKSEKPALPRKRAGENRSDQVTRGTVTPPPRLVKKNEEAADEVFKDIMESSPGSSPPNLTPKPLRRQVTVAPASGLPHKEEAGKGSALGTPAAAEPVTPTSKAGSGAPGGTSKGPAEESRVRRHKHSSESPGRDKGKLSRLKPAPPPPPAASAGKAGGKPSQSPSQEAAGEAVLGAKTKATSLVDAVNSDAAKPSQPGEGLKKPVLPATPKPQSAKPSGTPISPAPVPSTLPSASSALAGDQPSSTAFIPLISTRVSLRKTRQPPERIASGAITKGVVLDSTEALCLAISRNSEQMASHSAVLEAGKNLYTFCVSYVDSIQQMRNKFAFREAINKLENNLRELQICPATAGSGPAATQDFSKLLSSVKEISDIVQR

Insulin receptor = Insulin receptor (Homo sapiens, UniProt P06213); assay: Inhibition of INSR
Aurora kinase A = Aurora kinase A (Homo sapiens, UniProt O14965); assay: Inhibition of Aurora-A
Sequence of Aurora kinase A (O14965 whole entry): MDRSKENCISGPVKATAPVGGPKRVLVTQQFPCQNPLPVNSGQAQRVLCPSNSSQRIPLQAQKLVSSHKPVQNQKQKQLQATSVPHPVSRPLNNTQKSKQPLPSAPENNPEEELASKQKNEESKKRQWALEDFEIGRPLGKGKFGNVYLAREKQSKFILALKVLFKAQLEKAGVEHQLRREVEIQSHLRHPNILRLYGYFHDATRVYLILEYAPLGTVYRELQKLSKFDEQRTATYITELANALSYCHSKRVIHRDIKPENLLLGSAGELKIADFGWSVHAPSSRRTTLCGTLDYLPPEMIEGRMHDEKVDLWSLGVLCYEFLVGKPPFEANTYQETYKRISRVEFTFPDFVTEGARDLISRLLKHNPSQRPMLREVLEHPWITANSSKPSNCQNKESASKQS

[6] = target: T1, Tyrosine-protein kinase receptor UFO (Homo sapiens, UniProt P30530); assay: Inhibition of Axl
T1 sequence (P30530 whole entry): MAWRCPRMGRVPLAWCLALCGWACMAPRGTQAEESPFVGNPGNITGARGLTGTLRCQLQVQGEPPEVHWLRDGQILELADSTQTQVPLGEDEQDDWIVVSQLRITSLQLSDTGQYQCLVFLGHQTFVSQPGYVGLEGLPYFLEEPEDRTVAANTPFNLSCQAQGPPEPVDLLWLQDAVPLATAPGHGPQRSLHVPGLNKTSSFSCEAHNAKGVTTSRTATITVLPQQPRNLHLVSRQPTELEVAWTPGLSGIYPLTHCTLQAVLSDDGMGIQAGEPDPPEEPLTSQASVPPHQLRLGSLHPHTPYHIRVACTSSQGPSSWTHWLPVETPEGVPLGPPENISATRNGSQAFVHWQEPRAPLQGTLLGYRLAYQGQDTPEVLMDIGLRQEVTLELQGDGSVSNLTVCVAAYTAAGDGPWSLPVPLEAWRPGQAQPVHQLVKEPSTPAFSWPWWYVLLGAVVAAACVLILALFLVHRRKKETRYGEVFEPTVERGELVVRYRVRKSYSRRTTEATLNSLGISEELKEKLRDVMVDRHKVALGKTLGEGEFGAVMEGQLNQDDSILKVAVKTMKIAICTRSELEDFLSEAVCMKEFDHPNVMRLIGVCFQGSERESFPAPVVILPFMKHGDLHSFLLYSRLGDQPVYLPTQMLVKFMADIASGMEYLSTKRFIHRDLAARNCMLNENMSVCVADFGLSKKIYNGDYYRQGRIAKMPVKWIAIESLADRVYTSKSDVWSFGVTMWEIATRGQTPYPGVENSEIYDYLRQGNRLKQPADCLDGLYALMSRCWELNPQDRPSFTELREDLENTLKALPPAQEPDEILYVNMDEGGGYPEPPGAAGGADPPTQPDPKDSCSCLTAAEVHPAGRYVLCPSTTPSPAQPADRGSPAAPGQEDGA

[7] = target: Glycogen synthase kinase-3 beta (Homo sapiens, UniProt P49841); assay: Inhibition of Gsk3beta
Sequence of Glycogen synthase kinase-3 beta (P49841 whole entry): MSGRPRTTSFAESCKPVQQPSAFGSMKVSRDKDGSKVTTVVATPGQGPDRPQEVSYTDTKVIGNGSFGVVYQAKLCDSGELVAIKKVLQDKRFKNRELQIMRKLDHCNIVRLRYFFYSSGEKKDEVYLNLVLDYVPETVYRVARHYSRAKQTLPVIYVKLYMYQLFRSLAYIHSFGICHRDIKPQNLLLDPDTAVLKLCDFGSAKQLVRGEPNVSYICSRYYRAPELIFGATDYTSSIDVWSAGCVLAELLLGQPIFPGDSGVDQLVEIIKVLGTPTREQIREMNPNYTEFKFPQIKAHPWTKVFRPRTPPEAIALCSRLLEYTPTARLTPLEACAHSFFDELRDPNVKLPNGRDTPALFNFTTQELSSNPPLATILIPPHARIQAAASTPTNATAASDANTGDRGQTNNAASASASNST

[8] = target: Proto-oncogene tyrosine-protein kinase Src (Homo sapiens, UniProt P12931); assay: Inhibition of Src
Sequence of Proto-oncogene tyrosine-protein kinase Src (P12931 2-536 limits assumed): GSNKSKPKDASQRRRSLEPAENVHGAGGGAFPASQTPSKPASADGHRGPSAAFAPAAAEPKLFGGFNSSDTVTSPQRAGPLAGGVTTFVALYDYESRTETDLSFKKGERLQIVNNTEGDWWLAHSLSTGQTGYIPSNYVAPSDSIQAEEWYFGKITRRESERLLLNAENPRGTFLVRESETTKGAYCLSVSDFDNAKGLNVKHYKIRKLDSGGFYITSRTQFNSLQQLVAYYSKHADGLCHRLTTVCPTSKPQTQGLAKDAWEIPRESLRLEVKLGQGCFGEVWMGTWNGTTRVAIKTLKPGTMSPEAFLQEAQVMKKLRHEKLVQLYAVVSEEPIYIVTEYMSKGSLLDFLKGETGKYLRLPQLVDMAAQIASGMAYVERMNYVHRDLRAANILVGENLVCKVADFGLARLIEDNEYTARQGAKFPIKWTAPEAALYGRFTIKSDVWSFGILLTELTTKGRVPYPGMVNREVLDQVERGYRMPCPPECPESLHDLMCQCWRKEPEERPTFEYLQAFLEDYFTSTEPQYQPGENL

[9] = target: Serine/threonine-protein kinase TAO3 (Homo sapiens, UniProt Q9H2K8); assay: Inhibition of TAOK3
[10] = target: Cyclin-dependent kinase 2 (Homo sapiens, UniProt P24941); assay: Inhibition of Cdk2
[11] = target: Serine/threonine-protein kinase Sgk1 (Homo sapiens, UniProt O00141); assay: Inhibition of Sgk
CYP2D6 = CYP2D6 (Homo sapiens, UniProt P10635); assay: Inhibition of CYP2D6 using dextromethorphan as substrate at 3 uM; type: ADME; conditions: probe dextromethorphan
[12] = Inhibition of CK2
[13] = target: T2, Inhibitor of nuclear factor kappa-B kinase subunit beta (Homo sapiens, UniProt O14920); assay: Inhibition of IKK-beta
T2 sequence (O14920 whole entry): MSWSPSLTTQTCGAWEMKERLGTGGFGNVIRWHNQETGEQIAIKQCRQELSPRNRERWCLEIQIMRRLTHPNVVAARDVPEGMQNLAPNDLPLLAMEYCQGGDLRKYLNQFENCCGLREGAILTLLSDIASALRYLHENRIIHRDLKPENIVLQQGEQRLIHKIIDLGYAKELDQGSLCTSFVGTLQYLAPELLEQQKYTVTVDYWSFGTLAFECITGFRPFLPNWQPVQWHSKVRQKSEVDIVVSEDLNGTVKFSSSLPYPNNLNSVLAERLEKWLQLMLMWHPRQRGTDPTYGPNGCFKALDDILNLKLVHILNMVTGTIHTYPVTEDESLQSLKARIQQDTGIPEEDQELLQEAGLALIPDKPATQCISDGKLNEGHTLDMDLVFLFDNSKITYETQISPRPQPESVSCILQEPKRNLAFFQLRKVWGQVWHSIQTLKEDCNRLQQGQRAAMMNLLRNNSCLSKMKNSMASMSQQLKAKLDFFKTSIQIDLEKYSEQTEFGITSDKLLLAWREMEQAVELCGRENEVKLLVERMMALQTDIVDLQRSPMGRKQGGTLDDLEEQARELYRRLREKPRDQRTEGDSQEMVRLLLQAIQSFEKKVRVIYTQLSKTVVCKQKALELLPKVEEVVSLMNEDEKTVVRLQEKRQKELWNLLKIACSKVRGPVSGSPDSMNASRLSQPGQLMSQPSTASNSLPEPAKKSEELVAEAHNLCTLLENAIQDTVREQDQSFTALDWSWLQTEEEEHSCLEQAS

[14] = target: Serine/threonine-protein kinase PAK 4 (Homo sapiens, UniProt O96013); assay: Inhibition of Pak4
Sequence of Serine/threonine-protein kinase PAK 4 (O96013 whole entry): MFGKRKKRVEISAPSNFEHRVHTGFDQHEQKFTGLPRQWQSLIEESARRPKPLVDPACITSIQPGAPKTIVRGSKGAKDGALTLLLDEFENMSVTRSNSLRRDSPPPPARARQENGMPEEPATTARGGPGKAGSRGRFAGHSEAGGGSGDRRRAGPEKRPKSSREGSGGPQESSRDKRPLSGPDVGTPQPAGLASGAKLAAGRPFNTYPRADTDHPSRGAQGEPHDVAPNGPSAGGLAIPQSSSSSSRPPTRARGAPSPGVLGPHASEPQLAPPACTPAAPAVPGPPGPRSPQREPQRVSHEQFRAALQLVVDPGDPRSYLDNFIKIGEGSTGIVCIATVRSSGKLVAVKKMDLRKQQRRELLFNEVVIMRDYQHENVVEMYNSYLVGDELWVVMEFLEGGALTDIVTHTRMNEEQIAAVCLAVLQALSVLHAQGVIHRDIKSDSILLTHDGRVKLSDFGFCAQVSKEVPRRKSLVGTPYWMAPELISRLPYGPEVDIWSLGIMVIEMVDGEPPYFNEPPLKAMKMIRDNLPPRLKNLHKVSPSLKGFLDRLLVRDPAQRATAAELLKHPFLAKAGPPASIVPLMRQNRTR

[15] = target: Serine/threonine-protein kinase Chk2 (Homo sapiens, UniProt O96017); assay: Inhibition of Chk2
Sequence of Serine/threonine-protein kinase Chk2 (O96017 whole entry): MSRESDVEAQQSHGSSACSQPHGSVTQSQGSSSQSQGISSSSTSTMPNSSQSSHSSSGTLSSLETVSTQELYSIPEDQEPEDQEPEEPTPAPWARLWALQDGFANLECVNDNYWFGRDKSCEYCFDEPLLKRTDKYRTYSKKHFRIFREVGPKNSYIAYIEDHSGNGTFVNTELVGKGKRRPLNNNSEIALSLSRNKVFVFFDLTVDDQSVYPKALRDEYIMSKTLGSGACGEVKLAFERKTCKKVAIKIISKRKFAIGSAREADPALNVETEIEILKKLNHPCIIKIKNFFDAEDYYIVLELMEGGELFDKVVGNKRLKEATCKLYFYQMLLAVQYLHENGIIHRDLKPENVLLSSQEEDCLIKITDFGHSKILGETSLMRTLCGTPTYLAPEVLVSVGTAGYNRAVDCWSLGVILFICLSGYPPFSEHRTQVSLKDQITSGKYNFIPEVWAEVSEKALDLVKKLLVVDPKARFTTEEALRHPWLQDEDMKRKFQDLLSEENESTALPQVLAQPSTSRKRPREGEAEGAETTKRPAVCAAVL

[16] = Inhibition of PKA
[17] = Half life in human liver microsomes; type: ADME, Microsome
[18] = Aqueous solubility of compound at pH 6.5; type: physicochemical
[19] = target: High affinity nerve growth factor receptor (Homo sapiens, UniProt P04629); assay: Inhibition of TrkA
[20] = target: Hepatocyte growth factor receptor (Homo sapiens, UniProt P08581); assay: Inhibition of HGFR
Sequence of Hepatocyte growth factor receptor (P08581 whole entry): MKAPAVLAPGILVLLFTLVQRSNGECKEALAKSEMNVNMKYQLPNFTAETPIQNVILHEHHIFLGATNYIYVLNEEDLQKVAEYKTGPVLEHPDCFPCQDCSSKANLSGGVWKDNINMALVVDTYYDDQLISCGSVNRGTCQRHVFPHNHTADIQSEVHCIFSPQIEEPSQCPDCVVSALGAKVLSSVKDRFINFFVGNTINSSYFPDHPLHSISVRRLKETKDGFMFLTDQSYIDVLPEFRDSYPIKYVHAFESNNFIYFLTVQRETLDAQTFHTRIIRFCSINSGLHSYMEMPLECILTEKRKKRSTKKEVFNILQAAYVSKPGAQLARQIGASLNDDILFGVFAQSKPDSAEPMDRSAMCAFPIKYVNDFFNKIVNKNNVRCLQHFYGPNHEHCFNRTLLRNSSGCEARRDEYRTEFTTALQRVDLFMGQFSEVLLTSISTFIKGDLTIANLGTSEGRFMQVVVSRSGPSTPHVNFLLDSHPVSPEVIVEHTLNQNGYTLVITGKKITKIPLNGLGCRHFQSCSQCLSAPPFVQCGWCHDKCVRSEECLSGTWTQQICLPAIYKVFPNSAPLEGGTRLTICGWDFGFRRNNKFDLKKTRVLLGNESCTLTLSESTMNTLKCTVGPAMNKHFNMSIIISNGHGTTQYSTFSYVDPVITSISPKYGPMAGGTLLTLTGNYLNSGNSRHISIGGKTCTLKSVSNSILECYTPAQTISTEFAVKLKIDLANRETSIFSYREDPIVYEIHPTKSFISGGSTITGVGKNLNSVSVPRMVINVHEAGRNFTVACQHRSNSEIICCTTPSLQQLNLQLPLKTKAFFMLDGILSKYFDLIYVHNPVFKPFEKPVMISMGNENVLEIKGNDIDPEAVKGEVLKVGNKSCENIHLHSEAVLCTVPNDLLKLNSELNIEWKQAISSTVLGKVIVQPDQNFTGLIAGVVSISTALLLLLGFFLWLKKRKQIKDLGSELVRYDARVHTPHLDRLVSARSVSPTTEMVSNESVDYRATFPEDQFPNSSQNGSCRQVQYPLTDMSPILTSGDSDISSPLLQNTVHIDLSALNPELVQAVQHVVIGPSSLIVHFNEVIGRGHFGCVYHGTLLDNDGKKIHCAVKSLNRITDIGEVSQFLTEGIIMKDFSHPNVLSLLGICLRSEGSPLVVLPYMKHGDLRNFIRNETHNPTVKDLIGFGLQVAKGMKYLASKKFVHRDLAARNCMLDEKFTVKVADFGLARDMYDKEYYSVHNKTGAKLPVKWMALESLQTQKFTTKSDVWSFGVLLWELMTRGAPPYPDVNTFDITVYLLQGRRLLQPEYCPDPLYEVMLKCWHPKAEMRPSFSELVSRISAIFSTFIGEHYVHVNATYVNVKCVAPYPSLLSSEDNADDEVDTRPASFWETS

[21] = Clearance in po dosed Sprague-Dawley rat; type: ADME, organism-based; conditions: in vivo
[22] = Oral bioavailability in Sprague-Dawley rat; type: ADME, organism-based; conditions: in vivo
Rattus norvegicus = assay: Volume of distribution at steady state in po dosed Sprague-Dawley rat; type: ADME, organism-based; conditions: in vivo
Cytochrome P450 2D6 = Cytochrome P450 2D6 (Homo sapiens, UniProt P10635); assay: Inhibition of CYP2D6 using dextromethorphan as substrate; type: ADME
[23] = Half life in po dosed Sprague-Dawley rat; type: ADME, organism-based; conditions: in vivo

| pIC50 [5] | pIC50 [6] | pIC50 [7] | pIC50 [8] | pIC50 [10] | pIC50 [12] | pIC50 [13] | pIC50 [14] | pIC50 [15] | pIC50 [16] | half-life [17] [min] | solubility [18] [µM] | pIC50 [20] | Structure (SMILES) | other results |
| --- | --- | --- | --- | --- | --- | --- | --- | --- | --- | --- | --- | --- | --- | --- |
| < 4.52 | 4.62 | < 4.52 | < 4.52 | < 4.52 | < 4.52 | < 4.52 | < 4.52 | < 4.52 | 4.54 | 44 | 11.7 (≈ 5.06 µg/mL) | – | C[C@@H]1CCC(N2CC[C@]3(CN(C(=O)c4cc5ccc(F)cc5[nH]4)c4ccccc43)C2)CN1 (stereo partly specified) | pIC50 [1]: < 4.52; pIC50 [2]: < 4.52; Papp [3]: 5.13 ×10⁻⁶ cm/s; pIC50 [4]: 4.66; pIC50 (Insulin receptor): < 4.52; pIC50 (Aurora kinase A): < 4.52; pIC50 [9]: < 4.52; pIC50 [11]: < 4.52; inhibition at 3 µM (CYP2D6): 94%; pIC50 [19]: < 4.52 |
| < 4.52 | 4.71 | < 4.52 | < 4.52 | < 4.52 | < 4.52 | < 4.52 | < 4.52 | < 4.52 | < 4.52 | – | – | < 4.52 | O=C(c1cc2cc(F)ccc2[nH]1)N1C[C@]2(CCN(C3CCCNC3)C2)c2ccccc21 (stereo partly specified) | – |
| < 4.52 | 4.74 | < 4.52 | < 4.52 | < 4.52 | < 4.52 | < 4.52 | < 4.52 | < 4.52 | < 4.52 | – | – | < 4.52 | C[C@@H]1CCC(N2CC[C@]3(CN(C(=O)c4cc5ccccc5[nH]4)c4ccccc43)C2)CN1 (stereo partly specified) | – |
| < 4.52 | 5.28 | < 4.52 | < 4.52 | < 4.52 | < 4.52 | < 4.52 | < 4.52 | < 4.52 | < 4.52 | 52 | 7.8 (≈ 3.16 µg/mL) | – | O=C(c1cc2ccc(F)cc2[nH]1)N1C[C@]2(CCN(C3CCNC3)C2)c2ccccc21 (stereo partly specified) | CL/F [21]: 5 mL/min/kg; bioavailability [22]: 11%; Vdss (Rattus norvegicus): 1.6 L/kg; pIC50 (Cytochrome P450 2D6): 6.18; half-life [23]: 240 min |
